These results are taken from US12269800B2, “Delivery of therapeutic alkaloid compounds” (priority 2021, dated 2025).

Series [1] is classed as physicochemical. Here is the method:
The hydrolysis kinetics was under a certain temperature and measured by LCMS at a certain time interval. The corresponding LCMS chromatograms were recorded and the conversions were calculated. The hydrolysis conditions and the data were summarized in below table. LCMS spectra were obtained using Agilent 1200G1956A or SHIMADZU LCMS-2020. Standard LCMS conditions were as follows (running time 1.55 minutes):
Acidic condition: Mobile Phase A: 0.0375% TFA in water (v/v). Mobile Phase B: 0.01875% TFA in acetonitrile (v/v); Column: Kinetex EVO C18 30*2.1 mm, 5 μm.
Basic condition: Mobile Phase A: 0.025% NH3—H2O in water (v/v). Mobile Phase B: Acetonitrile; Column: Kinetex EVO C18 2.1×30 mm, 5 μm.
Conversion (%)=peak area 1/(peak area 1+peak area 2)*100%, peak area 1 is the integration of hydrolyzed product, peak area 2 is the integration of starting material.

A short description of series [2]: Pharmacokinetics of 043 and 001 in mice after oral 043 (75 mg/kg). The class given is in vivo, male C57BL/6 mice. Here is the method:
Total twelve male mice were used in this study. […] The formulation vehicle used was normal saline.
The plasma and brain concentration-time data of 043 and 001 was used for the pharmacokinetic analysis.
The extraction procedure for plasma/brain samples and the spiked plasma/brain calibration standards were identical:
A 25 μL of study sample plasma/brain (dilution applied to some samples) or spiked plasma calibration standard was added to individual pre-labeled micro-centrifuge tubes followed by 100 μL of internal standard prepared in acetonitrile (Glipizide-500 ng/mL) was added except for blank, where 100 μL of acetonitrile was added. Samples were vortexed for 5 minutes. Samples were centrifuged for 10 minutes at a speed of 4000 rpm at 4° C. Following centrifugation, 100 μL of clear supernatant was transferred in 96 well plates and analyzed using LC-MS/MS.

Series [3] in a line: Hydrolysis Assay of Example A2, Condition 1 (SGF with pepsin, pH 1.5, 37° C.). The format is physicochemical. The note with it: SGF with pepsin pH 1.5, 37° C., 0.5 mM.
Series [4] is classed as physicochemical. The note with it: DI water, 25° C., 0.5 mM.
Series [5] is described as follows: Plasma Stability Assay of Example A3, mouse plasma. The note with it: % of prodrug compound remaining, 37° C.
Series [6] in a line: Plasma Stability Assay of Example A3, human plasma. The note with it: % of prodrug compound remaining, 37° C., 0.0 min.
For series [7] the following is noted: for conversion to 001 in vivo: 2 mg/kg iv in mice; for plasma levels of 001: mouse, iv, 2 mg/kg. Here is the method:
General Procedure for intravenous pharmacokinetic study in mice: Male C57/BL6 mice were used to evaluate each compound, with n=3 mice/time point. Animals were administered through intravenous route with solution formulation at 2 mg/kg dose. […] Following blood collection, immediately, animals were sacrificed, and vena-cava was cut open and blood was drained. […] Brain samples were collected from set of three mice at each time point. […] Brain samples were homogenized using 2 volumes of ice-cold PBS (pH-7.4) of brain weight. […] Concentrations of compound (or compound and metabolite) in mouse plasma and brain samples were determined by fit for purpose LC-MS/MS method.

The mark [8] stands for this setting: analyte as labelled, single oral administration of 043, 75 mg/kg.
Where [9] appears, read: brain, analyte as labelled, single oral administration of 043, 75 mg/kg.
Setting [10] is: plasma, analyte as labelled, single oral administration of 043, 75 mg/kg.

Molecules are shown by their SMILES. Where two headings read alike, the source gives them in different places.

For orientation: Cmax means the maximum level reached in the sampled fluid or tissue. As a reminder, the Tmax is the time from dosing to the highest level.

As to `COc1ccc([C@]23CCN(C)[C@H]2CC2(CC3)OCCO2)cc1OC` (racemic) [Compound 013, 3′a-(3,4-dimethoxyphenyl)-1′-methyl-spiro[1,3-dioxolane-2,6′-2,3,4,5,7,7a-hexahydroindole]], in series [1], the “Notes (stability in words)” value was “Stable”. Besides, the “conversion to mesembrine” value in series [1] (acidic pH 2.0, 5° C.) was “not at 5 °C”; in series [1] (acidic pH 2.0, 37 and 50° C.), “converted to mesembrine”.

`COc1ccc([C@]23CCN(C)[C@H]2CC2(CC3)SCCS2)cc1OC` (racemic) [Compound 014, (7′aS)-3′a-(3,4-dimethoxyphenyl)-1′-methyl-spiro[1,3-dithiolane-2,6′-2,3,4,5,7,7a-hexahydroindole]]: the “Notes (stability in words)” value in series [1] (pH = 2.0, 25° C., 0.5 mM, 0.01M HCl, 0-24 h) was “Stable”.

For `COc1ccc([C@]23CCN(C)[C@H]2CC2(CC3)OCCO2)cc1OC` [Compound 043], the “conversion to 001 in vivo” value in series [2] (75 mg/kg po in mice) is listed as “efficiently converts to 001 in vivo”. In addition, in series [2] (setting [8]), the “brain concentrations quantifiable up to” value turned out to be 4 h and the “brain exposure-Kp” value is recorded as less than 1. For the same compound, in series [2] (setting [9]), the “AUClast” value worked out at 1787.23 ng·h/mL, the “Cmax” value came out at 2684.81 ng/mL and the “Tmax” value amounted to 30 min. Moreover, in series [2] (setting [10]), the “AUClast” value stood at 2555.07 ng·h/mL, the “Cmax” value amounted to 3392.53 ng/mL and the “Tmax” value is 30 min.

Turning to `CCCCC(=O)OC1=C[C@@H]2N(C)CC[C@]2(c2ccc(OC)c(OC)c2)CC1` [Compound 268, N-[[(3aS,7aS)-3a-(3,4-dimethoxyphenyl)-1-methyl-3,4,5,7a-tetrahydro-2H-indol-6-yl] pentanoate], the “Condition 1 Conversion (%)” value in series [3] (time 1 min), in series [3] (time 5 min), in series [3] (time 30 min), in series [3] (time 1 h), in series [3] (time 4 h) and in series [3] (time 24 h) was 0% in each case. The “Condition 2 Conversion (%)” value in series [4] (time 1 min), in series [4] (time 5 min), in series [4] (time 30 min), in series [4] (time 1 h), in series [4] (time 4 h) and in series [4] (time 24 h) was 0% each time.

As for `COc1ccc([C@@]23CC/C(=N/NC(=O)Nc4ccccc4Cl)C[C@@H]2N(C)CC3)cc1OC` [Compound 270, 1-[(Z)—[(3aS,7aS)-3a-(3,4-dimethoxyphenyl)-1-methyl-2,3,4,5,7,7a-hexahydroindol-6-ylidene]amino]-3-(2-chlorophenyl)urea], the “Condition 1 Conversion (%)” value in series [3] (time 4 h) and in series [3] (time 24 h) was 1% each time. The “Condition 2 Conversion (%)” value in series [4] (time 4 h) and in series [4] (time 24 h) was 1% each time.

Regarding `COc1ccc([C@]23CCN(C)[C@H]2CC2(CC3)OCC(C34CC5CC(CC(C5)C3)C4)O2)cc1OC` (stereo partly drawn) [Compound 281, (3′aS,7′aS)-4-(1-adamantyl)-3′a-(3,4-dimethoxyphenyl)-1′-methyl-spiro[1,3-dioxolane-2,6′-2,3,4,5,7,7a-hexahydroindole]], the “Condition 1 Conversion (%)” value in series [3] (time 1 min), in series [3] (time 5 min), in series [3] (time 30 min), in series [3] (time 1 h), in series [3] (time 4 h) and in series [3] (time 24 h) was 0% each time. The “Condition 2 Conversion (%)” value in series [4] (time 1 min), in series [4] (time 5 min), in series [4] (time 30 min), in series [4] (time 1 h), in series [4] (time 4 h) and in series [4] (time 24 h) was 0% in each case.

As to `COc1ccc([C@]23CCN(C)[C@H]2CC2(CC3)Oc3ccccc3O2)cc1OC` [Compound 300, (3′aS,7′aS)-3′a-(3,4-dimethoxyphenyl)-1′-methyl-spiro[1,3-benzodioxole-2,6′-2,3,4,5,7,7a-hexahydroindole]], the “Condition 1 Conversion (%)” value in series [3] (time 1 min), in series [3] (time 5 min), in series [3] (time 30 min), in series [3] (time 1 h), in series [3] (time 4 h) and in series [3] (time 24 h) was 0% throughout. Also, the “Condition 2 Conversion (%)” value in series [4] (time 1 min), in series [4] (time 5 min), in series [4] (time 30 min), in series [4] (time 1 h), in series [4] (time 4 h) and in series [4] (time 24 h) was 0% each time.

Turning to `COc1ccc([C@@]23CCC(OC(=O)c4ccc(C(F)(F)F)cc4)=C[C@@H]2N(C)CC3)cc1OC` [Compound 310], the “Condition 1 Conversion (%)” value in series [3] (time 1 min), in series [3] (time 5 min), in series [3] (time 30 min), in series [3] (time 1 h), in series [3] (time 4 h) and in series [3] (time 24 h) was 0% each time. Besides, the “Condition 2 Conversion (%)” value in series [4] (time 1 min), in series [4] (time 5 min), in series [4] (time 30 min), in series [4] (time 1 h), in series [4] (time 4 h) and in series [4] (time 24 h) was 0% in each case. Further, the “Mouse Plasma Prodrug (%)” value was 100.0% in series [5] (0.0 min); 0.4% in series [5] (15 min); 0.1% in series [5] (30 min); 0.1% in series [5] (60 min); 0.1% in series [5] (120 min); 0.1% in series [5] (240 min). The “Human Plasma Prodrug (%)” value in series [6] was determined as 100.0%.

For `CCC(=O)OC1=C[C@@H]2N(C)CC[C@]2(c2ccc(OC)c(OC)c2)CC1` [Compound 317, [(3aS,7aS)-3a-(3,4-dimethoxyphenyl)-1-methyl-3,4,5,7a-tetrahydro-2H-indol-6-yl] propanoate], the “conversion to 001 in vivo” value in series [7] is “converts to 001 in vivo”. In addition, the “001 quantifiable in plasma up to” value in series [7] (male, C57BL/6, mouse, in vivo) stood at 60 min. Besides, in series [7] (in vivo), the “plasma levels of 001” value is on record as “not detectable”.

Turning to `COc1ccc([C@@]23CCC(OC(=O)CC(C)C)=C[C@@H]2N(C)CC3)cc1OC` [Compound 334, [(3aS,7aS)-3a-(3,4-dimethoxyphenyl)-1-methyl-3,4,5,7a-tetrahydro-2H-indol-6-yl] 3-methylbutanoate], the “conversion to 001 in vivo” value in series [7] was “converts to 001 in vivo”. In addition, in series [7] (male, C57BL/6, mouse, in vivo), the “001 quantifiable in brain up to” value was 2 h and the “001 quantifiable in plasma up to” value was 60 min. The “plasma levels of 001” value in series [7] (in vivo) was “not detectable”.
